Several values for one entry are separate records, joined by “and”; a condition that tells them apart may be missing. Identical values can stand only once.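 Following 48 hours of exposure in 96-well plates, responses at five concentrations were used to interpolate endpoints linearly. GI50 marks 50% less growth. TGI marks complete inhibition of growth.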

Among the test systems are SK-MEL-28 melanoma; MOLT-4 leukemia; CAKI-1 renal; U251 CNS; KM20L2 colon; IGROV1 ovarian; SR leukemia; KM12 colon; SK-MEL-2 melanoma; HOP-92 NSCLC; A549 NSCLC; SW-620 colon; OVCAR-3 ovarian; HOP-62 NSCLC; NCI-H460 lung; DLD-1 colon; K-562 leukemia; DMS 114 small cell lung.
What all share (assay): NCI tumour cell line growth inhibition, 48 h

Take `N#Cc1ccc([N+](=O)[O-])cc1NC(N)=S`: the TGI in the test with SK-MEL-28 melanoma, in the test with MOLT-4 leukemia, in the test with CAKI-1 renal, with U251 CNS, with KM20L2 colon and with IGROV1 ovarian was > 100 µM each time. The TGI in the test on SR leukemia, in the test with KM12 colon, with SK-MEL-2 melanoma, with HOP-92 NSCLC, in the test with A549 NSCLC and in the test with SW-620 colon was > 100 µM throughout. Besides, the TGI in the test with OVCAR-3 ovarian and with HOP-62 NSCLC was > 100 µM throughout.
On to `O=Cc1ccccc1CCn1c(=O)c2cc3c(=O)n(CCc4ccccc4C=O)c(=O)c3cc2c1=O`, for which the TGI with NCI-H460 lung, in the test on SK-MEL-28 melanoma, in the test on MOLT-4 leukemia, in the test on U251 CNS, with IGROV1 ovarian and in the test with KM12 colon was > 100 µM each time. For the same compound, the TGI in the test with DLD-1 colon, in the test on K-562 leukemia, in the test with SK-MEL-2 melanoma, with A549 NSCLC, in the test with DMS 114 small cell lung and in the test on SW-620 colon was > 100 µM throughout. Further, the TGI with OVCAR-3 ovarian was > 100 µM.
Consider `Nc1nc(SCCNC(=O)CCc2ccc(O)c(I)c2)nc2c1ncn2C1OC(CO)C(O)C1O` (stereo unspecified), for which the TGI with NCI-H460 lung, in the test on SK-MEL-28 melanoma, in the test with MOLT-4 leukemia, in the test on U251 CNS, with KM20L2 colon and with IGROV1 ovarian was > 100 µM each time. Besides, the TGI in the test with SR leukemia, in the test on KM12 colon, in the test with DLD-1 colon, in the test on K-562 leukemia, with SK-MEL-2 melanoma and with HOP-92 NSCLC was > 100 µM in each case. For the same compound, the TGI with A549 NSCLC, with DMS 114 small cell lung, with SW-620 colon, in the test with OVCAR-3 ovarian and in the test on HOP-62 NSCLC was > 100 µM each time.
For `CC(C)CNCCc1ccccn1`, the TGI in the test on NCI-H460 lung, with SK-MEL-28 melanoma, with CAKI-1 renal, in the test on U251 CNS, in the test on IGROV1 ovarian and in the test with KM12 colon was > 100 µM each time. Moreover, the TGI with SK-MEL-2 melanoma, in the test on HOP-92 NSCLC, with A549 NSCLC, with SW-620 colon, in the test with OVCAR-3 ovarian and in the test on HOP-62 NSCLC was > 100 µM in each case.
Consider `C1=CC=C2NCCc3cccc(c3)CCNC3=CC=CC=CC3=NCCCCCCN=C2C=C1`, for which the TGI was 25.3 µM in the test with NCI-H460 lung; 38.3 µM in the test with MOLT-4 leukemia; > 100 µM in the test with CAKI-1 renal; > 100 µM with U251 CNS; 24.8 µM with KM20L2 colon; > 100 µM in the test on IGROV1 ovarian. For the same compound, the TGI in the test on SR leukemia is 82.4 µM; in the test on KM12 colon it was 47.3 µM; with DLD-1 colon, > 100 µM; with K-562 leukemia, > 100 µM; in the test on SK-MEL-2 melanoma, 79.8 µM; in the test on HOP-92 NSCLC, 54 µM. The TGI in the test with A549 NSCLC is > 100 µM; in the test on DMS 114 small cell lung it was 26.1 µM; with SW-620 colon, 80.7 µM; with OVCAR-3 ovarian, 99 µM; in the test with HOP-62 NSCLC it was 34.4 µM.
`CC1=C(SCCO)C(=O)c2ccccc2C1=O`: the TGI was 26.8 µM in the test on NCI-H460 lung; 25.9 µM with SK-MEL-28 melanoma; > 100 µM with MOLT-4 leukemia; 28.8 µM with CAKI-1 renal; 26.1 µM in the test with U251 CNS; 27.3 µM in the test on IGROV1 ovarian. Also, the TGI in the test with SR leukemia is > 100 µM; in the test on KM12 colon, 26.8 µM; in the test with K-562 leukemia, > 100 µM; with SK-MEL-2 melanoma, 24.5 µM; with HOP-92 NSCLC, 3.72 µM; in the test with A549 NSCLC, 32.8 µM. Moreover, the TGI in the test with SW-620 colon was found to be 33.1 µM; in the test on OVCAR-3 ovarian, 15.3 µM; in the test on HOP-62 NSCLC, 29.4 µM.
Regarding `CC[C@@]1(O)C[C@H](OC2CC(N(C)C)C(OC3CC(O)C(OC4CCC(=O)C(C)O4)C(C)O3)C(C)O2)c2c(cc3c(c2O)C(=O)c2c(O)cccc2C3=O)C1C(=O)OC` (stereo partly specified), the TGI in the test with NCI-H460 lung is 1.42 µM; with SK-MEL-28 melanoma, 0.215 µM and 0.806 µM; in the test on MOLT-4 leukemia, 0.655 µM; in the test with CAKI-1 renal it was 4.09 µM; with U251 CNS, 2.72 µM and 9.24 µM; in the test with KM20L2 colon, 4.64 µM. For the same compound, the TGI was 1.23 µM in the test with SR leukemia; 5.46 µM with DLD-1 colon; 0.0581 µM and 0.425 µM in the test with SK-MEL-2 melanoma; 0.0897 µM in the test on HOP-92 NSCLC; 0.474 µM with DMS 114 small cell lung; 0.23 µM and 1.96 µM with OVCAR-3 ovarian. The same compound gave a TGI in the test with HOP-62 NSCLC of 1.58 µM. Moreover, the GI50 in the test with MOLT-4 leukemia is 0.00383 µM; in the test on SR leukemia, 0.00493 µM.
For `O=c1oc2cc(O)ccc2c2oc3cc(O)ccc3c12`, the TGI in the test on NCI-H460 lung was > 113 µM; with SK-MEL-28 melanoma, > 125 µM; in the test on MOLT-4 leukemia, 83.3 µM; in the test with CAKI-1 renal it was > 107 µM; with U251 CNS, 93.5 µM; with KM20L2 colon it was 123 µM. The TGI in the test on IGROV1 ovarian, with KM12 colon, with DLD-1 colon, in the test with K-562 leukemia, in the test with SK-MEL-2 melanoma and in the test with HOP-92 NSCLC was > 125 µM throughout. For the same compound, the TGI with A549 NSCLC was 125 µM; in the test on DMS 114 small cell lung, > 12.5 µM; with SW-620 colon, > 125 µM; in the test with OVCAR-3 ovarian, 114 µM; in the test on HOP-62 NSCLC, 54.1 µM.
In the case of `CC(C)C1=CC2=CC[C@@H]3[C@](C)(CCC[C@@]3(C)C(=O)O)[C@H]2CC1`, the TGI is > 100 µM in the test with NCI-H460 lung; > 100 µM in the test on SK-MEL-28 melanoma; > 75.7 µM in the test on MOLT-4 leukemia; > 100 µM in the test on CAKI-1 renal; > 100 µM with U251 CNS; > 100 µM with KM20L2 colon. For the same compound, the TGI in the test with IGROV1 ovarian was > 100 µM; in the test with SR leukemia, > 100 µM; with KM12 colon, > 100 µM; in the test on DLD-1 colon, > 100 µM; in the test with K-562 leukemia, > 100 µM; in the test on SK-MEL-2 melanoma it was > 78.9 µM. Moreover, the TGI in the test with HOP-92 NSCLC was > 84.6 µM; with A549 NSCLC, > 100 µM; with DMS 114 small cell lung, > 100 µM; in the test with SW-620 colon, > 100 µM; with OVCAR-3 ovarian, 72.4 µM; with HOP-62 NSCLC it was > 100 µM.
Consider `C=CCn1c(=O)c(Br)nn(CCOCP(=O)(OCC)OCC)c1=O`, for which the TGI in the test on NCI-H460 lung, in the test on SK-MEL-28 melanoma, in the test on MOLT-4 leukemia, in the test with CAKI-1 renal, in the test with U251 CNS and in the test with IGROV1 ovarian was > 100 µM in each case. In addition, the TGI in the test on SR leukemia, with KM12 colon, in the test with K-562 leukemia, with SK-MEL-2 melanoma, with HOP-92 NSCLC and with A549 NSCLC was > 100 µM each time. Also, the TGI in the test with SW-620 colon, with OVCAR-3 ovarian and with HOP-62 NSCLC was > 100 µM in each case.
As to `COc1nc2ccc(CNc3ccc(C(=O)NC(CCC(=O)O)C(=O)O)cc3)cc2nc1OC` (stereo unspecified), the TGI with NCI-H460 lung, in the test with SK-MEL-28 melanoma, in the test with MOLT-4 leukemia, in the test with U251 CNS, in the test with IGROV1 ovarian and in the test with SR leukemia was > 100 µM in each case. Moreover, the TGI in the test on KM12 colon, in the test with K-562 leukemia, in the test with SK-MEL-2 melanoma, in the test on A549 NSCLC, in the test with SW-620 colon and with OVCAR-3 ovarian was > 100 µM in each case. Further, in the test with HOP-62 NSCLC, the TGI was > 100 µM.

Source of the values: PubChem BioAssay (NCI).
